In PubChem BioAssay (NCI):
“And” between values parts separate entries of the source, which are not always exact repeats. Identical values can stand only once.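 Method: 48-hour compound exposure of cells in 96-well plates, five concentrations, linear interpolation of endpoints. Here, GI50 denotes the concentration required for 50% inhibition of growth. At the TGI there is no net growth.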

What was measured:
Test in all cases: NCI tumour cell line growth inhibition, 48 h
BT-549 breast = tested on: BT-549 breast
NCI-H226 lung = tested on: NCI-H226 lung
UACC-257 melanoma = tested on: UACC-257 melanoma
HOP-92 NSCLC = tested on: HOP-92 NSCLC
NCI-H23 lung = tested on: NCI-H23 lung
RPMI-8226 leukemia = tested on: RPMI-8226 leukemia
OVCAR-3 ovarian = tested on: OVCAR-3 ovarian
COLO 205 colon = tested on: COLO 205 colon
SF-539 CNS = tested on: SF-539 CNS
HCC-2998 colon = tested on: HCC-2998 colon
CAKI-1 renal = tested on: CAKI-1 renal
OVCAR-5 ovarian = tested on: OVCAR-5 ovarian
HT29 colon = tested on: HT29 colon
SK-OV-3 ovarian = tested on: SK-OV-3 ovarian
A498 renal = tested on: A498 renal
MDA-MB-231 breast = tested on: MDA-MB-231 breast
MDA-MB-435 = tested on: MDA-MB-435
HCT-116 colon = tested on: HCT-116 colon
MALME-3M melanoma = tested on: MALME-3M melanoma
SN12C renal = tested on: SN12C renal
SNB-75 CNS = tested on: SNB-75 CNS
SK-MEL-2 melanoma = tested on: SK-MEL-2 melanoma
SW-620 colon = tested on: SW-620 colon
SF-295 CNS = tested on: SF-295 CNS
NCI-H522 lung = tested on: NCI-H522 lung
DU-145 prostate = tested on: DU-145 prostate
KM12 colon = tested on: KM12 colon
RXF 393 renal = tested on: RXF 393 renal
OVCAR-4 ovarian = tested on: OVCAR-4 ovarian
786-0 renal = tested on: 786-0 renal
M14 melanoma = tested on: M14 melanoma
OVCAR-8 ovarian = tested on: OVCAR-8 ovarian
IGROV1 ovarian = tested on: IGROV1 ovarian
SF-268 CNS = tested on: SF-268 CNS
SK-MEL-5 melanoma = tested on: SK-MEL-5 melanoma
UO-31 renal = tested on: UO-31 renal
UACC-62 melanoma = tested on: UACC-62 melanoma
ACHN renal = tested on: ACHN renal
HCT-15 colon = tested on: HCT-15 colon
HL-60(TB) leukemia = tested on: HL-60(TB) leukemia
NCI/ADR-RES ovarian = tested on: NCI/ADR-RES ovarian
SK-MEL-28 melanoma = tested on: SK-MEL-28 melanoma
NCI-H460 lung = tested on: NCI-H460 lung
CCRF-CEM leukemia = tested on: CCRF-CEM leukemia
PC-3 prostate = tested on: PC-3 prostate

`COc1ccc(CC2C(=O)NC(C)C(=O)N(C)C3C(=O)N(C)C(Cc4ccc(O)c(c4)Oc4ccc(cc4)C3O)C(=O)NC(C)C(=O)NC(C)C(=O)N2C)cc1` (stereo not drawn) (tested in a mixture with another compound) was tested, and the TGI (BT-549 breast) was 9.92 nM, the TGI (NCI-H226 lung) was 117 nM and the TGI (UACC-257 melanoma) was 101 nM and 27.8 nM. For the same compound, the TGI (HOP-92 NSCLC) was 37.2 nM and the TGI (NCI-H23 lung) was 51 nM.

In the case of `O=c1c2cc(F)ccc2sc2c(Nc3ccncc3)nc3ccccc3c12`, the GI50 (RPMI-8226 leukemia) is reported as 1750 nM, the TGI (RPMI-8226 leukemia) is reported as 4430 nM and the GI50 (OVCAR-3 ovarian) is reported as 1840 nM. It also gave a TGI (OVCAR-3 ovarian) of 3880 nM, a GI50 (COLO 205 colon) of 1700 nM and a TGI (COLO 205 colon) of 3940 nM. The GI50 (SF-539 CNS) was 1720 nM, the TGI (SF-539 CNS) was 3290 nM and the GI50 (BT-549 breast) was 3310 nM. The TGI (BT-549 breast) was 16700 nM, the GI50 (HCC-2998 colon) was 2670 nM and the TGI (HCC-2998 colon) was 7970 nM. The GI50 (CAKI-1 renal) was 1530 nM, the TGI (CAKI-1 renal) was 3840 nM and the GI50 (OVCAR-5 ovarian) was 1660 nM. It also gave a TGI (OVCAR-5 ovarian) of 3110 nM, a GI50 (HT29 colon) of 1880 nM and a TGI (HT29 colon) of 3730 nM. For the same compound, the GI50 (SK-OV-3 ovarian) was 14200 nM, the TGI (SK-OV-3 ovarian) was 34400 nM and the GI50 (A498 renal) was 1040 nM. The TGI (A498 renal) was 2640 nM, the GI50 (MDA-MB-231 breast) was 1300 nM and the TGI (MDA-MB-231 breast) was 2670 nM. For the same compound, the GI50 (MDA-MB-435) was 1900 nM, the TGI (MDA-MB-435) was 3670 nM and the GI50 (HCT-116 colon) was 1450 nM. For the same compound, the TGI (HCT-116 colon) was 3130 nM, the GI50 (MALME-3M melanoma) was 1740 nM and the TGI (MALME-3M melanoma) was 3420 nM. For the same compound, the GI50 (NCI-H226 lung) was 14500 nM, the TGI (NCI-H226 lung) was 47800 nM and the GI50 (SN12C renal) was 2160 nM. For the same compound, the TGI (SN12C renal) was 5930 nM, the GI50 (UACC-257 melanoma) was 2340 nM and the TGI (UACC-257 melanoma) was 6170 nM. For the same compound, the GI50 (SNB-75 CNS) was 1100 nM, the TGI (SNB-75 CNS) was 3640 nM and the GI50 (SK-MEL-2 melanoma) was 11200 nM. The TGI (SK-MEL-2 melanoma) was 26500 nM, the GI50 (SW-620 colon) was 1500 nM and the TGI (SW-620 colon) was 3160 nM. For the same compound, the GI50 (NCI-H23 lung) was 1710 nM, the TGI (NCI-H23 lung) was 3800 nM and the GI50 (SF-295 CNS) was 4120 nM. For the same compound, the TGI (SF-295 CNS) was 26700 nM, the GI50 (NCI-H522 lung) was 1910 nM and the TGI (NCI-H522 lung) was 4820 nM. The GI50 (DU-145 prostate) was 2490 nM, the TGI (DU-145 prostate) was 6270 nM and the GI50 (KM12 colon) was 1870 nM. The TGI (KM12 colon) was 3930 nM, the GI50 (RXF 393 renal) was 1700 nM and the TGI (RXF 393 renal) was 3410 nM. It also gave a GI50 (OVCAR-4 ovarian) of 1700 nM, a TGI (OVCAR-4 ovarian) of 3530 nM and a GI50 (786-0 renal) of 1760 nM. For the same compound, the TGI (786-0 renal) was 3390 nM, the GI50 (M14 melanoma) was 1570 nM and the TGI (M14 melanoma) was 3010 nM. For the same compound, the GI50 (OVCAR-8 ovarian) was 1780 nM, the TGI (OVCAR-8 ovarian) was 4250 nM and the GI50 (IGROV1 ovarian) was 1550 nM. It also gave a TGI (IGROV1 ovarian) of 5550 nM, a GI50 (SF-268 CNS) of 1910 nM and a TGI (SF-268 CNS) of 4560 nM. The GI50 (SK-MEL-5 melanoma) was 7290 nM, the TGI (SK-MEL-5 melanoma) was 28200 nM and the GI50 (UO-31 renal) was 1110 nM. For the same compound, the TGI (UO-31 renal) was 2500 nM, the GI50 (UACC-62 melanoma) was 1790 nM and the TGI (UACC-62 melanoma) was 3740 nM. The GI50 (ACHN renal) was 1550 nM, the TGI (ACHN renal) was 3130 nM and the GI50 (HCT-15 colon) was 1650 nM. The TGI (HCT-15 colon) was 3320 nM, the GI50 (HL-60(TB) leukemia) was 13700 nM and the TGI (HL-60(TB) leukemia) was 39800 nM. For the same compound, the GI50 (NCI/ADR-RES ovarian) was 1940 nM, the TGI (NCI/ADR-RES ovarian) was 4470 nM and the GI50 (SK-MEL-28 melanoma) was 1990 nM. The TGI (SK-MEL-28 melanoma) was 3840 nM, the GI50 (NCI-H460 lung) was 1770 nM and the TGI (NCI-H460 lung) was 3620 nM. For the same compound, the GI50 (CCRF-CEM leukemia) was 860 nM and the TGI (CCRF-CEM leukemia) was 2920 nM.

Work on `C=C(CNCCc1ccc(O)cc1)[C@@H]1CC[C@]2(CO)CC[C@]3(C)[C@H](CC[C@@H]4[C@@]5(C)CCC(NCCc6ccc(O)cc6)C(C)(C)[C@@H]5CC[C@]43C)[C@@H]12` (stereo partly drawn) yielded a GI50 (SF-539 CNS) of 1310 nM, a TGI (SF-539 CNS) of 2600 nM and a GI50 (BT-549 breast) of 1590 nM. The TGI (BT-549 breast) was 3060 nM, the GI50 (CAKI-1 renal) was 1490 nM and the TGI (CAKI-1 renal) was 2850 nM. For the same compound, the GI50 (SK-OV-3 ovarian) was 1770 nM, the TGI (SK-OV-3 ovarian) was 3260 nM and the GI50 (A498 renal) was 1400 nM. The TGI (A498 renal) was 2860 nM, the GI50 (MDA-MB-435) was 873 nM and the TGI (MDA-MB-435) was 2240 nM. For the same compound, the GI50 (SNB-75 CNS) was 1250 nM, the TGI (SNB-75 CNS) was 2540 nM and the GI50 (HOP-92 NSCLC) was 667 nM. It also gave a TGI (HOP-92 NSCLC) of 2180 nM, a GI50 (PC-3 prostate) of 884 nM and a TGI (PC-3 prostate) of 2350 nM. For the same compound, the GI50 (SW-620 colon) was 178 nM, the TGI (SW-620 colon) was 352 nM and the GI50 (DU-145 prostate) was 1540 nM. The TGI (DU-145 prostate) was 3000 nM, the GI50 (OVCAR-4 ovarian) was 1350 nM and the TGI (OVCAR-4 ovarian) was 2700 nM. It also gave a GI50 (OVCAR-8 ovarian) of 1610 nM, a TGI (OVCAR-8 ovarian) of 4270 nM and a GI50 (UO-31 renal) of 1160 nM. It also gave a TGI (UO-31 renal) of 2440 nM, a GI50 (UACC-62 melanoma) of 1720 nM and a TGI (UACC-62 melanoma) of 3260 nM. It also gave a GI50 (NCI-H460 lung) of 191 nM and a TGI (NCI-H460 lung) of 362 nM.
